pIC50: −log10 of the molar value.
Legend:
[1] = target: T1, USP5 (Homo sapiens, UniProt P45974); assay: USP5 activity assay; format: biochemical; details: 400 nM Ub-AMC, 300 pM enzyme; pre-incubated 30 minutes at 25° C., 60 minutes at 37° C.; sigmoidal fit; read-out: USP 5
T1 sequence (P45974 1-858): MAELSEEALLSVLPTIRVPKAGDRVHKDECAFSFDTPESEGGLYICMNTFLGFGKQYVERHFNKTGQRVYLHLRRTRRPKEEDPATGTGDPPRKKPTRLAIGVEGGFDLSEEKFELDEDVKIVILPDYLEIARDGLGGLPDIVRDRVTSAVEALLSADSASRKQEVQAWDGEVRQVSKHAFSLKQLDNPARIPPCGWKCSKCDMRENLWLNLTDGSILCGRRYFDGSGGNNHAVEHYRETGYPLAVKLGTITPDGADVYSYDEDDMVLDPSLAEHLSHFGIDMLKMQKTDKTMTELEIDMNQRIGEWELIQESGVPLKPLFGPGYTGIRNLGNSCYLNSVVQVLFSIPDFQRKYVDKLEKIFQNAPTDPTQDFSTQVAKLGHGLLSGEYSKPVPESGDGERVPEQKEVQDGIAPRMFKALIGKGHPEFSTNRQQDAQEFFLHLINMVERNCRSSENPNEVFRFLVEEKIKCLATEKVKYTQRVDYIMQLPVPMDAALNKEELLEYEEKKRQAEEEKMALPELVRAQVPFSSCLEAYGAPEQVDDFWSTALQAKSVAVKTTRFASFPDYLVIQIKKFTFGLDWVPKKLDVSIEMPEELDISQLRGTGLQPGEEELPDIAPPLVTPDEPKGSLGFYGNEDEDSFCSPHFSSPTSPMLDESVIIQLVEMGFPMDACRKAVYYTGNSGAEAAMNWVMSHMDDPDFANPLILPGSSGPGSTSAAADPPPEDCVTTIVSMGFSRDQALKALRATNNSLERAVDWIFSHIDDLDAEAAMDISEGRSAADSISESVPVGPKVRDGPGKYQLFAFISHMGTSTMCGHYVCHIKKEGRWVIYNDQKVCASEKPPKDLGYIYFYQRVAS
Method: USP5 was diluted in USP buffer (50 mM Tris HCl; 0.5 mM EDTA; 5 mM DTT; 0.01% Triton X-100; Bovine Serum Albumin 0.05 mg.ml^−1 pH 7.6). Compounds stocks (100 mM) were stored at -20° C. in DMSO.
Reactions were performed as duplicates in Black LJL 96 well plates (HE microplates; Molecular Devices; 20 μl final reaction volume). The substrate concentration for USP5 was 400 nM Ub-AMC (Boston Biochem). The concentrations of the enzyme (USP5) in specificity assays was 300 pM. The concentrations were determined in order to perform specificity assays under initial velocities at fixed substrate concentration. Compounds were pre-incubated with enzymes for 30 minutes at 25° C. Reactions were initiated by addition of substrate to the plates containing the enzymes (+/− compounds) diluted in assay buffer. Reactions were incubated for 60 minutes at 37° C. Reactions were stopped by adding acetic acid (100 mM final). Readings were performed on a Pherastar Fluorescent Reader (BMG). λ Emission 380 nm; λ Excitation=460 nm. Data (mean values +/− standard deviation) were analyzed as % of control (no compound) and plotted as percentage versus the Log of the compound concentration using GraphPad (Prism). Data were fitted to a sigmoidal model (variable slope).

[2] = target: T2, Uch-L3 (Homo sapiens, UniProt P15374); assay: UCH-L3 activity assay; format: biochemical; details: 400 nM Ub-AMC, 13 pM enzyme; pre-incubated 30 minutes at 25° C., 60 minutes at 37° C.; sigmoidal fit
T2 sequence (P15374 1-230): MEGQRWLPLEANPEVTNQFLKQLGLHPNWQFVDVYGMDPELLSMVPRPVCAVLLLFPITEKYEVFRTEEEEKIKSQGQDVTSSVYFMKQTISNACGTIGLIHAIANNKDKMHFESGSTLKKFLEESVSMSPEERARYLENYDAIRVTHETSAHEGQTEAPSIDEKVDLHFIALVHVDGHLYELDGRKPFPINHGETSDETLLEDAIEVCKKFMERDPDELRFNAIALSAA
Method: Uch-L3 was diluted in USP buffer (50 mM Tris HCl; 0.5 mM EDTA; 5 mM DTT; 0.01% Triton X-100; Bovine Serum Albumin 0.05 mg.ml^−1 pH 7.6). Compounds stocks (100 mM) were stored at −20° C. in DMSO. Compounds were tested at the following final concentrations: 100 μM; 33.3 μM; 11.1 μM; 3.7 μM; 1.23 μM; 412 nM; 137 nM; 45.7 nM; 15.2 nM; 5 nM.
Reactions were performed as duplicates in Black LJL 96 well plates (HE microplates; Molecular Devices; 20 μl final reaction volume). The substrate concentration for Uch-L3 was 400 nM Ub-AMC (Boston Biochem). The concentration of the enzyme (Uch-L3) in specificity assays was 13 pM. The concentrations were determined in order to perform specificity assays under initial velocities at fixed substrate concentration. Compounds were pre-incubated with enzymes for 30 minutes at 25° C. Reactions were initiated by addition of substrate to the plates containing the enzymes (+/− compounds) diluted in assay buffer. Reactions were incubated for 60 minutes at 37° C. Reactions were stopped by adding acetic acid (100 mM final). Readings were performed on a Pherastar Fluorescent Reader (BMG). δ Emission 380 nm; δ Excitation=460 nm. Data (mean values +/− standard deviation) were analyzed as % of control (no compound) and plotted as percentage versus the Log of the compound concentration using GraphPad (Prism). Data were fitted to a sigmoidal model (variable slope).

pIC50 [1]	pIC50 [2]	Compound
5.81	6.49	6-(7)-Chloro-1-methyl-2,3,4,10,10a-pentaaza-cyclopenta[b]fluoren-9-one [Example 3/A]
5.41	6.10	CC(C)c1nnc2nc3c(nn12)C(=O)c1ccccc1-3 [Example 1l/A, 1-lsopropyl-2,3,4,10,10a-pentaaza-cyclopenta[b]fluoren-9-one]
5.32	5.74	CCc1nnc2nc3c(nn12)C(=O)c1cc(OC)c(OC)cc1-3 [Example 5b/A, 1-Ethyl-6,7-dimethoxy-2,3,4,10,10a-pentaaza-cyclopenta[b]fluoren-9-one]
–	6.88	CCc1nnc2nc3c(nn12)-c1cc(OC)c(OC)cc1C3=O [Example 5b/B, 3-Ethyl-6,7-dimethoxy-1,2,3a,4,10-pentaaza-cyclopenta[b]fluoren-9-one]

Source: patent publication US20090181972A1, “Novel Inhibitors of Cysteine Proteases, the Pharmaceutical Compositions Thereof and their Therapeutic Applications” (priority 2005, published 2009)
